Reference: patent US10806735B2, “Use of neutrophil elastase inhibitors in liver disease” (pH Pharma Co., Ltd., priority 2018, dated 2020)
Where two headings read alike, the source gives them in different places.

Experiments:
[1] = Solubility and hygroscopicity of the drug substance; type: physicochemical
[2] = Example 2: body weight of DIO mice, 6 weeks once daily oral dosing; type: in vivo; conditions: for terminal body weight: after 6 weeks, mean±SEM; for body weight at baseline: baseline before treatment
Description: (§1) Male DIO (diet-induced obesity) mice (C57BLJ6NTac DIO MPF, n=35) were purchased from Taconic Biosciences (Rensselaer, N.Y.). DIO mice were prepared by feeding male C57BL16 mice a high fat diet (HFD, D12492; Research Diets, Inc., New Brunswick, N.J.) from 6-16 weeks of age. A twelve-hour light cycle was maintained throughout study duration. Room temperature was monitored daily and maintained at 22-25° C. DIO mice were housed individually and maintained on the HFD during a 7-day facility acclimation period and throughout the study period. All mice were administered vehicle (5% DMSO/3% ethanol/92% peanut oil) once daily during the acclimation period.
(§2) Compounds were administered once daily in the morning by oral gavage for 6 weeks. Dose volume was maintained at 5 ml/kg throughout the study.
(§3) Whole blood was obtained weekly from fed animals by tail clip for measurement of non-fasted blood glucose (StatStrip; Nova Biomedical, Waltham, Mass.) on day 7, day 14, day 21 and day 35 after first dosing. Body weight was recorded prior to glucose measurement at baseline and weekly thereafter. Oral glucose tolerance tests were performed in fasted mice at baseline (day −1), day 28 and day 42 thereafter. […] At the end of the 6-hour fasting period, mice were challenged with glucose (2 g/kg, 10 ml/kg, by oral gavage). Blood samples were obtained by tail clip at 0, 20, 40, 60, 90 and 120 minutes post-glucose load for assessment of blood glucose by StatStrip. Serum insulin was measured from time 0 blood samples of OGTT using the Mouse/Rat Insulin Kit (MSD #K152BZC; Meso Scale Diagnostics, Rockville, Md.).
(§4) All data are represented as group mean±SEM. Data were analyzed using JMP (SAS software). All normalizations were calculated using terminal body weight. […] Treatment effects compared to vehicle were determined using Oneway ANOVA (*, p<0.05) followed by Dunnett's test where appropriate.

DIO mice [3] = assay: Example 2: blood glucose (fasted and fed) in DIO mice; type: in vivo; conditions: for fed glucose on day 35: vehicle 134.5±6.9; for fasted blood glucose at study start: baseline before treatment
Description: as §1, §2, §3, §4

DIO mice [4] = assay: Example 2: oral glucose tolerance test (OGTT) in DIO mice; type: in vivo; conditions: for decrease of glucose AUC on day 42 compared to baseline: vehicle 12.6±10.3%; for OGTT glucose AUC on day 42: vehicle 27.8±1.2; for OGTT glucose AUC on day 28: vehicle 27.9±1.1; for OGTT glucose AUC at baseline: day −1 before treatment
Description: as §1, §2, §3, §4

DIO mice [5] = assay: Example 2: fasted serum insulin in DIO mice; type: in vivo; conditions: for fasted serum insulin on day 42: vehicle 8.2±1.5; for fasted serum insulin at baseline: baseline before treatment
Description: as §1, §2, §3, §4

DIO mice [6] = assay: Example 2: terminal liver and epididymal fat weights in DIO mice; type: in vivo; conditions: 6 weeks; for epididymal fat weight (% body weight): vehicle 3.4±0.3; for liver weight (% body weight): vehicle 5.6±0.2
Description: Animals were terminated using CO2 inhalation and induction of pneumothorax. Four mice from each treatment group were sacrificed at 0.5 hr post dose and four were sacrificed at 4 hours post dose. […] Organ weights (liver, epididymal fat) were recorded. All data are represented as group mean±SEM. Data were analyzed using JMP (SAS software). All normalizations were calculated using terminal body weight. All assigned animals completed the study. […] Treatment effects compared to vehicle were determined using Oneway ANOVA (*, p<0.05) followed by Dunnett's test where appropriate.

[7] = Example 3: body weight of DIO mice, 4 weeks BID oral dosing; type: in vivo; conditions: for body weight growth rate / body weight at the end of the study: 4 weeks; for body weight growth rate: vehicle 9.2±2.0%; for body weight at the end of the study: vehicle 48.8±0.9; for body weight at baseline: baseline before treatment
Description: (§5) Body weight was recorded prior to glucose measurement at baseline and weekly thereafter. All data are represented as group mean±SEM. Data were analyzed using Prism 7.0 (Graphpad software). All normalizations were calculated using terminal body weight. All assigned animals completed the study. […] Treatment effects compared to vehicle were determined using Oneway ANOVA (*, p<0.05; *, P<0.01) followed by Dunnett's test where appropriate.

DIO mice [8] = assay: Example 3: blood glucose in DIO mice; type: in vivo; conditions: for blood glucose at day 28: vehicle 143.0±7.1; for fasted blood glucose at study start: baseline before treatment
Description: as §5, with “thereafter. […]” for “thereafter.”

DIO mice [9] = assay: Example 3: oral glucose tolerance test (OGTT) in DIO mice; type: in vivo; conditions: for OGTT glucose AUC on day 28: vehicle 25.5±1.4; for OGTT glucose AUC at baseline: day −1 before treatment
Description: as §5, with “All” for “Body weight was recorded prior to glucose measurement at baseline and weekly thereafter. All”

DIO mice [10] = assay: Example 3: fasted serum insulin in DIO mice; type: in vivo; conditions: for fasted serum insulin on day 28: vehicle 7.7±1.6; for fasted serum insulin at baseline: baseline before treatment
Description: as §5, with “All” for “Body weight was recorded prior to glucose measurement at baseline and weekly thereafter. All”

[11] = Example 4: Phase 1 single-ascending dose study in healthy subjects, pharmacokinetics; type: in vivo, human; conditions: single doses 1 to 40 mg
[12] = healthy subjects, cited from earlier work
[13] = non-CF BE patients, 28 days, cited from earlier work
[14] = Example 4: Phase 1 single-ascending dose study in healthy subjects, safety; conditions: single doses 1 to 40 mg
Description: Following Screening, subjects received single doses of study drug and were monitored during an in-clinic period and an out-patient follow-up period. Subjects were confined to the study site for Study Days −2 through 7 to collect PK and safety assessments. Following discharge from the study site on Study Day 7, subjects returned to the study site on Study Days 14, 21, 28, and 35.

HFD-fed mice = conditions: cited from earlier work

Compound: CC1=C(C#N)[C@@H](c2ccc(C#N)cc2S(C)(=O)=O)N(C)C(=O)N1c1cccc(C(F)(F)F)c1 [Compound 1, (4S)-4-[4-cyano-2-(methylsulfonyl)phenyl]-3,6-dimethyl-2-oxo-1-[3-(trifluoromethyl)phenyl]-1,2,3,4-tetrahydropyrimidine-5-carbonitrile]
- solubility in acetone ([1]; acetone): soluble
- solubility in ethanol ([1]; ethanol): very slightly soluble
- hygroscopicity ([1]; normal storage conditions): not hygroscopic
- solubility in water ([1]; water): practically insoluble
- terminal body weight ([2]; 3 mg/kg/day PO): 49.8 ± 0.9 g
- growth rate of body weight ([2]; 15 mg/kg/day PO, 6 weeks, vehicle 14±1.8%): 6.9±1.8%
- terminal body weight ([2]; 15 mg/kg/day PO): 47.3 ± 1.1 g
- body weight at baseline ([2]; group assigned to 3 mg/kg/day): 42.8 ± 1.1 g
- body weight at baseline ([2]; group assigned to 15 mg/kg/day): 42.8 ± 1.0 g
- fed glucose on day 35 (DIO mice [3]; 3 mg/kg/day PO): 128.3 ± 3.4 mg/dL
- decrease of fasting glucose from baseline (DIO mice [3]; 15 mg/kg/day PO, 6 weeks): 11%
- fed glucose on day 35 (DIO mice [3]; 15 mg/kg/day PO): 134.9 ± 4.7 mg/dL
- fasted blood glucose at study start (DIO mice [3]; group assigned to 3 mg/kg/day): 160.3 ± 5.7 mg/dL
- fasted blood glucose at study start (DIO mice [3]; group assigned to 15 mg/kg/day): 164.6 ± 7.3 mg/dL
- decrease of glucose AUC on day 42 compared to baseline (DIO mice [4]; 3 mg/kg PO): 20.0±4.5%
- OGTT glucose AUC on day 42 (DIO mice [4]; 3 mg/kg/day PO): 28.6±0.7 mg/dL/min×10^3
- OGTT glucose AUC on day 28 (DIO mice [4]; 3 mg/kg/day PO): 24.0±0.9 mg/dL·min×10^3
- decrease of glucose AUC on day 42 compared to baseline (DIO mice [4]; 15 mg/kg PO): −21.9±5.0%
- OGTT glucose AUC on day 42 (DIO mice [4]; 15 mg/kg/day PO): 26.3±1.1 mg/dL/min×10^3
- OGTT glucose AUC on day 28 (DIO mice [4]; 15 mg/kg/day PO): 22.7±0.7 mg/dL·min×10^3
- OGTT glucose AUC at baseline (DIO mice [4]; group assigned to 3 mg/kg/day): 36.3±2.0 mg/dL·min×10^3
- OGTT glucose AUC at baseline (DIO mice [4]; group assigned to 15 mg/kg/day): 34.4±2.2 mg/dL·min×10^3
- fasted serum insulin on day 42 (DIO mice [5]; 3 mg/kg/day PO (low dose)): 11.8 ± 1.3 ng/mL
- fasted serum insulin on day 42 (DIO mice [5]; 15 mg/kg/day PO (higher dose)): 5.9 ± 1.5 ng/mL
- fasted serum insulin at baseline (DIO mice [5]; group assigned to 3 mg/kg/day): 3.5 ± 0.5 ng/mL
- fasted serum insulin at baseline (DIO mice [5]; group assigned to 15 mg/kg/day): 5.4 ± 1.0 ng/mL
- epididymal fat weight (% body weight) (DIO mice [6]; 3 mg/kg/day PO): 3.1±0.3%
- liver weight (% body weight) (DIO mice [6]; 3 mg/kg/day PO): 6.8±0.3%
- epididymal fat weight (% body weight) (DIO mice [6]; 15 mg/kg/day PO): 3.5±0.2%
- liver weight (% body weight) (DIO mice [6]; 15 mg/kg/day PO): 6.4±0.2%
- body weight growth rate ([7]; 15 mg/kg BID PO): 5.9±1.6%
- body weight at the end of the study ([7]; 15 mg/kg BID PO): 47.5 ± 1.3 g
- body weight growth rate ([7]; 30 mg/kg BID PO): 2.8±2.3%
- body weight at the end of the study ([7]; 30 mg/kg BID PO): 46.0 ± 1.2 g
- body weight at baseline ([7]; group assigned to 15 mg/kg BID): 44.8 ± 0.7 g
- body weight at baseline ([7]; group assigned to 30 mg/kg BID): 44.8 ± 0.7 g
- blood glucose at day 28 (DIO mice [8]; 15 mg/kg BID PO): 151.9 ± 6.1 mg/dL
- blood glucose at day 28 (DIO mice [8]; 30 mg/kg BID PO): 137.3 ± 4.1 mg/dL
- fasted blood glucose at study start (DIO mice [8]; group assigned to 15 mg/kg BID): 185.1 ± 8.3 mg/dL
- fasted blood glucose at study start (DIO mice [8]; group assigned to 30 mg/kg BID): 180.1 ± 7.0 mg/dL
- OGTT glucose AUC on day 28 (DIO mice [9]; 15 mg/kg BID PO): 24.7±1.9 mg/dL·min×10^3
- OGTT glucose AUC on day 28 (DIO mice [9]; 30 mg/kg BID PO): 22.4±1.0 mg/dL·min×10^3
- OGTT glucose AUC at baseline (DIO mice [9]; group assigned to 15 mg/kg BID): 33.8±0.9 mg/dL-min×10^3
- OGTT glucose AUC at baseline (DIO mice [9]; group assigned to 30 mg/kg BID): 32.8±1.8 mg/dL-min×10^3
- fasted serum insulin on day 28 (DIO mice [10]; 15 mg/kg BID PO): 5.8 ± 1.4 ng/mL
- fasted serum insulin on day 28 (DIO mice [10]; 30 mg/kg BID PO): 4.0 ± 0.3 ng/mL
- fasted serum insulin at baseline (DIO mice [10]; group assigned to 15 mg/kg BID): 7.0 ± 1.1 ng/mL
- fasted serum insulin at baseline (DIO mice [10]; group assigned to 30 mg/kg BID): 4.9 ± 0.6 ng/mL
- exposure (AUC and Cmax) versus dose [11]: proportional increases in exposure (AUC and Cmax) with dose
- safety and tolerability ([12]; single and repeated doses up to 1 mg for up to 14 days): safe and well tolerated
- serious adverse events (SAEs) ([12]; three Phase 1 studies): no serious AEs (SAEs) were reported
- study drug-induced laboratory or ECG abnormalities ([12]; three Phase 1 studies): No safety signals
- safety and tolerability ([13]; 1.0 mg oral IR tablet): generally safe and well tolerated
- SAEs attributed to the drug ([13]; 1.0 mg oral): no SAEs were attributed by the investigator to the drug
- study drug-induced laboratory parameter or ECG effects ([13]; 1.0 mg oral): No safety signals
- AE rate compared with placebo subjects [14]: somewhat lower than that in the control (placebo) subjects
- effects on laboratory safety evaluations (clinical chemistry and hematology) [14]: no clear effects
- serious AEs, discontinuations, deaths [14]: no serious AEs and no discontinuations or deaths
- occurrence of headache ([14]; 36 subjects on drug): only observed in one Compound 1 subject

Compound: CC(C)[C@@H]1C(=O)N(S(C)(=O)=O)[C@@H]2CCN(C(=O)/C=C/CN3CCCCC3)[C@H]21.Cl [GW311616A]
- glucose tolerance (HFD-fed mice; HFD mice (Talukdar 2012)): improved glucose tolerance
- insulin sensitivity in glucose clamp/tracer studies (HFD-fed mice; HFD mice (Talukdar 2012)): increased peripheral and hepatic insulin sensitivity
- insulin resistance and body weight gain (HFD-fed mice; HFD-fed mice (Mansuy-Aubert 2013)): reversed insulin resistance and body weight gain

Compound: CN(CCOc1ccc(CC2SC(=O)NC2=O)cc1)c1ccccn1 (stereo not drawn) [rosiglitazone, reference compound]
- terminal body weight ([2]; 30 mg/kg/day PO): 55.0 ± 1.4 g
- body weight at baseline ([2]; group assigned to 30 mg/kg/day): 42.8 ± 1.0 g
- decrease of fasting glucose compared to baseline (DIO mice [3]; 30 mg/kg/day PO, 6 weeks): 23%
- fasting glucose after 6 weeks of treatment (DIO mice [3]; 30 mg/kg/day PO, 6 weeks): 125.8 ± 4.8 mg/dL
- fed glucose on day 35 (DIO mice [3]; 30 mg/kg/day PO): 125.5 ± 4.5 mg/dL
- fasted blood glucose at study start (DIO mice [3]; group assigned to 30 mg/kg/day): 164.0 ± 4.0 mg/dL
- fasted serum insulin on day 42 (DIO mice [5]; 30 mg/kg/day PO): 1.3 ± 0.1 ng/mL
- fasted serum insulin at baseline (DIO mice [5]; group assigned to 30 mg/kg/day): 5.2 ± 1.1 ng/mL
- epididymal fat weight (% body weight) (DIO mice [6]; 30 mg/kg/day PO): 3.7±0.2%
- liver weight (% body weight) (DIO mice [6]; 30 mg/kg/day PO): 5.0±0.2%
